# Assay results reported in patent US9157904B2, “Wnt antagonists and methods of treatment and screening” (OncoMed Pharmaceuticals, Inc., priority 2010, dated 2015).
# Key:
# Assay type in all cases: in vivo, NOD/SCID mice
# [1] = tested on: C28 colon tumor xenografts; test: C28 colon tumor xenograft, combination with irinotecan; settings: C28 established tumors; FZD8-Fc 15 mg/kg once a week, irinotecan 15 mg/kg once a week, i.p.
# Protocol: The effect of FZD8-Fc in combination with a chemotherapeutic agent on the growth of C28 colon tumor xenografts was analyzed. Dissociated C28 colon tumor cells (10,000 cells) were injected subcutaneously into 6-8 week old male NOD/SCID mice. Tumors were allowed to grow for 21 days until they reached an average volume of 128 mm^3. The mice were randomized (n=10 per group) and treated with FZD8-Fc (54F03) (15 mg/kg once a week), irinotecan (15 mg/kg once a week), a combination of FZD8-Fc and irinotecan or a control antibody. Administration of the FZD8-Fc, irinotecan and control antibody was performed via injection into the intraperitoneal cavity. Tumor growth was monitored and tumor volumes were measured with electronic calipers at the indicated time points. Data are expressed as mean±S.E.M.
# PN13 tumors = test: CK20 immunohistochemistry of treated PN13 tumors; settings: vs control antibody
# Protocol: The cell differentiation capability of FZD8-Fc was also evaluated in the OMP-PN13 pancreas tumor xenograft model. Dissociated OMP-PN13 cells (50,000 per animal) were injected subcutaneously into 6-8 week old male NOD/SCID mice. Tumor growth was monitored weekly and tumor measurements were initiated once tumors were palpable. On day 40 mice with average tumor volume of 114 mm^3 were randomized into 4 groups of 10 animals each. Animals were injected with either control antibody or FZD8-Fc (15 mg/kg). Administration of the FZD8-Fc and control antibody was performed via injection into the intraperitoneal cavity, twice weekly. After 19 days of treatment, the tumors were excised and immunohistochemistry analysis was performed using standard techniques. Briefly, tumors were fixed in formalin, embedded in paraffin, and tumor sections of 4 μm thickness were cut. After deparaffinization and hydration, the tumor sections were subjected to an antigen retrieval process in Tris buffer (pH 9.5). Sections were incubated with hydrogen peroxide (Sigma-Aldrich, St Louis, Mo.) for 10 minutes to block endogenous peroxidases. […]
# Tumor sections were obtained and treated as described above. […] The bound antibody was detected using the immunohistochemistry protocol described above.
# C28 colon tumor = C28 colon tumor xenograft, FZD8-Fc variants (Example 14); settings: C28 established tumors; 15 mg/kg i.p. twice a week
# Protocol: Dissociated C28 colon tumor cells (10,000 cells) were injected subcutaneously into 6-8 week old male NOD/SCID mice. Tumors were allowed to grow for 28 days until they reached an average volume of 145 mm^3. The mice were randomized (n=9 per group) and treated with FZD8-Fc variants or a control antibody at a dose of 15 mg/kg twice a week. Administration of the FZD8-Fc variants and control antibody was performed via injection into the intraperitoneal cavity. Tumor growth was monitored and tumor volumes were measured with electronic calipers at the indicated time points. Data are expressed as mean±S.E.M.
# PN4 tumors = test: Flow cytometry for ESA and CD44 on treated PN4 tumors; settings: PN4 tumors harvested day 85, 5 tumors pooled; control antibody 12.7%
# Protocol: Control and treated tumors from the OMP-PN4 xenograft study described above were harvested at the end of the study (day 85). The tumors were processed and dissociated into single cells. Single cell suspensions derived from 5 tumors of each treatment group were pooled, and the pooled samples were then incubated on ice for 30 min with antibodies that bind mouse cells selectively (α-mouse CD45-biotin 1:200 dilution and rat α-mouse H2Kd-biotin 1:100 dilution, BioLegend, San Diego, Calif.), followed by addition of streptavidin-labeled magnetic beads (Invitrogen, Carlsbad, Calif.). Mouse cells were removed with the aid of a magnet. For analysis of human cell surface markers, the single tumor cell suspension was stained with anti-ESA (Biomeda, Hayward, Calif.) and anti-CD44 (BD Biosciences, San Jose, Calif.) antibodies which were directly conjugated to fluorochromes. Dead cells were excluded by using the viability dye DAPI. Flow cytometry was performed using a FACS Aria instrument (Becton Dickinson, Franklin Lakes, N.J.). Side scatter and forward scatter profiles were used to eliminate cell clumps.
# PN21 pancreas tumor = PN21 pancreas tumor xenograft, tumor growth; settings: FZD8-Fc 15 mg/kg i.p. once weekly
# Protocol: The anti-tumor activity of FZD8-Fc (54F03) was evaluated in the PN21 pancreas tumor xenograft model. Dissociated OMP-PN21 cells (50,000 per animal) were injected subcutaneously into 6-8 week old male NOD/SCID mice. Tumor growth was monitored weekly and tumor measurements were initiated once tumors were palpable. On day 36, mice with average tumor volumes of 144 mm^3 were randomized into 4 groups of 9 animals each. Animals were injected with control antibody, FZD8-Fc (15 mg/kg), gemcitabine (2 mg/kg) or a combination of FZD8-Fc and gemcitabine. Administration of the FZD8-Fc and gemcitabine was performed via injection into the intraperitoneal cavity, once weekly. Tumors were measured twice a week and tumor volume was determined as described herein.
substance,measurement,setting,value
54F03: Fri domain of human FZD8 fused to human IgG1 Fc with GRA linker; SEQ ID NO:1,reduction in tumor growth over control antibody,[1],66%
same,cells expressing CK20,PN13 tumors,increase in cells expressing CK20
same,reduction in tumor growth as compared to control antibody,C28 colon tumor,approximately 56%
same,bulk tumor population expressing both ESA and CD44 at high levels (double positive population),PN4 tumors,1.9%
same,reduction in tumor growth as compared to control,PN21 pancreas tumor,66%
